According to ChEMBL document CHEMBL1201862, “PubChem BioAssay data set” (2004):
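Following 48 hours of exposure in 96-well plates, responses at five concentrations were used to interpolate endpoints linearly. GI50: concentration for 50% inhibition of growth.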 Activity calls are given as the source filed them. Cut-off read from the data, not from the text of the source: active = GI50 up to about 1.1 µM and inactive = higher.

What was measured:
Experiment in all cases: NCI anticancer screen, dose series, 48 h
786-0 = test system: 786-0
A549 = test system: A549
BT-549 = test system: BT-549
CAKI-1 = test system: CAKI-1
CCRF-CEM = test system: CCRF-CEM
HCT-116 = test system: HCT-116
HT-29 = test system: HT-29
K562 = test system: K562
LOX IMVI = test system: LOX IMVI
MCF7 = test system: MCF7
MOLT-4 = test system: MOLT-4
Malme-3M = test system: Malme-3M
NCI-H460 = test system: NCI-H460
OVCAR-5 = test system: OVCAR-5
OVCAR-8 = test system: OVCAR-8
SN12C = test system: SN12C
TK-10 = test system: TK-10
UO-31 = test system: UO-31
MDA-MB-231 = test system: MDA-MB-231
HCC 2998 = test system: HCC 2998

| Compound | GI50 (786-0) | GI50 (A549) | GI50 (BT-549) | GI50 (CAKI-1) | GI50 (CCRF-CEM) | GI50 (HCT-116) | GI50 (HT-29) | GI50 (K562) | GI50 (LOX IMVI) | GI50 (MCF7) | GI50 (MOLT-4) | GI50 (Malme-3M) | GI50 (NCI-H460) | GI50 (OVCAR-5) | GI50 (OVCAR-8) | GI50 (SN12C) | GI50 (TK-10) | GI50 (UO-31) | GI50 (MDA-MB-231) | GI50 (HCC 2998) |
| --- | --- | --- | --- | --- | --- | --- | --- | --- | --- | --- | --- | --- | --- | --- | --- | --- | --- | --- | --- | --- |
| COc1cc2c3c(n(C)c(=O)c2cc1OC)-c1cc2c(cc1/C3=C\CCCI)OCO2 | 5.32 µM (inactive) | 38.9 µM (inactive) | 1.7 µM (inactive) | 4.35 µM (inactive) | 1.29 µM (inactive) | 1.47 µM (inactive) | 20.4 µM (inactive) | 2.07 µM (inactive) | 8.3 µM (inactive) | 2.91 µM (inactive) | 0.238 µM (active) | 2.23 µM (inactive) | 5.42 µM (inactive) | > 4.65 µM (inactive) | 1.73 µM (inactive) | 8.75 µM (inactive) | 0.649 µM (active) | 0.653 µM (active) |  |  |
| CCC/C(C)=N/NC(=S)SC.CCC/C(C)=N/NC(=S)SC.[Zn+2] | 10.9 µM (inactive) | 12.6 µM (inactive) | 10.6 µM (inactive) | 13.7 µM (inactive) | 2.16 µM (inactive) | 10.4 µM (inactive) | 3.07 µM (inactive) | 16.6 µM (inactive) | 1.48 µM (inactive) | 7.24 µM (inactive) | 1.47 µM (inactive) | 2.9 µM (inactive) | 16 µM (inactive) | 10.3 µM (inactive) | 1.89 µM (inactive) | 2.94 µM (inactive) | 11.6 µM (inactive) | 11 µM (inactive) | 1.7 µM (inactive) |  |
| Cc1c2ccccc2c(C)n2c1nc1ccccc12 | 4.68 µM (inactive) | 4.37 µM (inactive) | 15.1 µM (inactive) |  | 5.06 µM (inactive) | 4.65 µM (inactive) | 5.11 µM (inactive) | 4.1 µM (inactive) |  | 2.24 µM (inactive) | 2.9 µM (inactive) | 8.69 µM (inactive) | 4.1 µM (inactive) | 16 µM (inactive) | 4.97 µM (inactive) | 5.2 µM (inactive) | 13.4 µM (inactive) | 5.35 µM (inactive) |  | 5.43 µM (inactive) |
| COc1ccc(COC(=O)NNC(=O)C2CSC(c3ccccc3)N2C(C)=O)cc1 (stereo unspecified) | > 100 µM (inactive) | > 100 µM (inactive) | > 100 µM (inactive) | > 100 µM (inactive) | > 100 µM (inactive) | > 100 µM (inactive) | > 100 µM (inactive) | > 100 µM (inactive) | > 100 µM (inactive) | > 100 µM (inactive) | > 100 µM (inactive) | > 100 µM (inactive) | > 100 µM (inactive) | > 100 µM (inactive) | > 100 µM (inactive) | > 100 µM (inactive) | > 100 µM (inactive) | > 100 µM (inactive) |  | > 100 µM (inactive) |
| O=C(CSc1nnc(-c2ccccn2)s1)N/N=C/c1ccc([N+](=O)[O-])cc1 | 41.9 µM (inactive) | 58.5 µM (inactive) | 56.2 µM (inactive) | > 100 µM (inactive) | > 100 µM (inactive) | 55.7 µM (inactive) | > 100 µM (inactive) | > 100 µM (inactive) | > 100 µM (inactive) | > 100 µM (inactive) | > 100 µM (inactive) | > 100 µM (inactive) | > 100 µM (inactive) | > 100 µM (inactive) | 41.8 µM (inactive) | 69.8 µM (inactive) | 21.7 µM (inactive) | < 0.01 µM (active) | 15.9 µM (inactive) |  |
| O=C1CC(=O)NC(NN2C(=O)/C(=C/c3ccc(Cl)cc3)N=C2c2ccccc2)=N1 | 17 µM (inactive) | 14.6 µM (inactive) | 15.8 µM (inactive) | 72.6 µM (inactive) | 6.4 µM (inactive) | 15.8 µM (inactive) | 16.4 µM (inactive) | 9.62 µM (inactive) |  | 21.2 µM (inactive) | 4.73 µM (inactive) | 17.3 µM (inactive) | 9.53 µM (inactive) | 15.1 µM (inactive) | 14.5 µM (inactive) | 16.8 µM (inactive) | 16.5 µM (inactive) | 16.3 µM (inactive) | 17.9 µM (inactive) | 11.7 µM (inactive) |
| Cc1c2c(C#N)nccc2c(C)c2c1c1ccccc1n2Cc1ccccc1 | > 100 µM (inactive) | > 100 µM (inactive) |  | > 100 µM (inactive) | > 100 µM (inactive) | > 100 µM (inactive) | > 100 µM (inactive) | > 100 µM (inactive) | > 100 µM (inactive) | 6.49 µM (inactive) | > 10 µM (inactive) | > 100 µM (inactive) | > 100 µM (inactive) | > 100 µM (inactive) | > 100 µM (inactive) | > 100 µM (inactive) | > 100 µM (inactive) | > 100 µM (inactive) | > 100 µM (inactive) | > 100 µM (inactive) |
| CC1(C=O)CCC23COC4(CCC5C6(C)CCC(OC7OCC(OC8OC(CO)C(O)C(OC9OC(CO)C(O)C(O)C9O)C8OC8OCC(O)C(O)C8O)C(O)C7OC7OC(CO)C(O)C(O)C7O)C(C)(C)C6CCC5(C)C4(C)CC2O)C3C1 (stereo unspecified) | 1.2 µM (inactive) | 1.63 µM (inactive) | 1.57 µM (inactive) | 1.12 µM (active) | 0.221 µM (active) | 1.44 µM (inactive) | 0.849 µM (active) | 3.1 µM (inactive) | 1.24 µM (inactive) | 0.822 µM (active) | 0.367 µM (active) |  | 1.29 µM (inactive) | 1.29 µM (inactive) | 0.365 µM (active) |  | 1.89 µM (inactive) | 1.48 µM (inactive) | 0.32 µM (active) | 1.01 µM (active) |
| Cc1[nH]c2ncn3[nH]c(=S)nc3c2c1Cc1ccccc1 | > 100 µM (inactive) | > 100 µM (inactive) | > 100 µM (inactive) | > 100 µM (inactive) | 76.4 µM (inactive) | > 100 µM (inactive) | > 100 µM (inactive) |  |  | 52.6 µM (inactive) | > 100 µM (inactive) | > 100 µM (inactive) | > 100 µM (inactive) | > 100 µM (inactive) | > 100 µM (inactive) | > 100 µM (inactive) | > 100 µM (inactive) | > 100 µM (inactive) | > 100 µM (inactive) | 92.5 µM (inactive) |
| O=C(Nc1ccn(C2CC(O)C(CO)O2)c(=O)n1)c1ccccc1 (stereo unspecified) | > 100 µM (inactive) | > 100 µM (inactive) | > 100 µM (inactive) | > 100 µM (inactive) | > 100 µM (inactive) | > 100 µM (inactive) | > 100 µM (inactive) | > 100 µM (inactive) | > 100 µM (inactive) | > 100 µM (inactive) | > 100 µM (inactive) |  | > 100 µM (inactive) | > 100 µM (inactive) | > 100 µM (inactive) | > 100 µM (inactive) | > 100 µM (inactive) |  | > 100 µM (inactive) |  |
| O=C(O)c1cc2cc(c1)/N=C/c1ccccc1OCc1cccc(n1)COc1ccccc1/C=N/2 | 10.6 µM (inactive) | > 25 µM (inactive) | 23.6 µM (inactive) |  | 9.71 µM (inactive) | 9.14 µM (inactive) | 19 µM (inactive) | 10.1 µM (inactive) |  | 6.79 µM (inactive) | 20 µM (inactive) | 3.64 µM (inactive) | > 25 µM (inactive) | > 25 µM (inactive) | > 25 µM (inactive) | 14.8 µM (inactive) | 13.6 µM (inactive) | > 25 µM (inactive) | > 25 µM (inactive) |  |
| Cc1cccc(-c2nc(-c3cnccn3)n(Cc3ccccc3)n2)c1 | 52.7 µM (inactive) | > 100 µM (inactive) | > 100 µM (inactive) |  | > 100 µM (inactive) | > 100 µM (inactive) | > 100 µM (inactive) | > 100 µM (inactive) | > 100 µM (inactive) | > 100 µM (inactive) | > 100 µM (inactive) |  | > 100 µM (inactive) | > 100 µM (inactive) | 99.1 µM (inactive) | > 100 µM (inactive) |  | > 100 µM (inactive) | > 100 µM (inactive) | > 100 µM (inactive) |
| O=S(=O)(O)c1c(/N=N/c2c(O)ccc3ccccc23)ccc2ccccc12 | > 100 µM (inactive) | > 100 µM (inactive) | > 100 µM (inactive) | > 100 µM (inactive) | 48.4 µM (inactive) | > 100 µM (inactive) | > 100 µM (inactive) | > 100 µM (inactive) | > 100 µM (inactive) |  | > 100 µM (inactive) | 55.1 µM (inactive) |  | > 100 µM (inactive) | > 100 µM (inactive) | > 100 µM (inactive) | > 100 µM (inactive) | 76.7 µM (inactive) | > 100 µM (inactive) |  |
| NC(=O)C(=CNC(=S)Nc1ccc(S(=O)(=O)Nc2ccccn2)cc1)C(N)=O | > 100 µM (inactive) | > 100 µM (inactive) | > 100 µM (inactive) | > 100 µM (inactive) | 30 µM (inactive) | 46.7 µM (inactive) | > 100 µM (inactive) | 40.6 µM (inactive) | > 93.1 µM (inactive) | > 83.2 µM (inactive) | 1.52 µM (inactive) |  | > 100 µM (inactive) | > 100 µM (inactive) | > 100 µM (inactive) | > 100 µM (inactive) | > 100 µM (inactive) | > 100 µM (inactive) | > 100 µM (inactive) | > 10 µM (inactive) |
| CSc1ncc2c(n1)-c1ccccc1OC2N1CCOCC1 (stereo unspecified) | 75.7 µM (inactive) | 97.7 µM (inactive) | 49.5 µM (inactive) | 50.8 µM (inactive) | 47.1 µM (inactive) | 69.7 µM (inactive) | 90.4 µM (inactive) | 56.1 µM (inactive) | 65.5 µM (inactive) | 55.8 µM (inactive) | 43.3 µM (inactive) |  | 41.5 µM (inactive) | > 100 µM (inactive) | > 100 µM (inactive) | 50 µM (inactive) | 43.3 µM (inactive) | 42.4 µM (inactive) | 83.9 µM (inactive) |  |
